# Measured values published in PubChem BioAssay AID1552 (Sanford-Burnham Center for Chemical Genomics, 2009).
# Active and inactive are the calls of the source. How the calls were made is not given here.
# Molecular target: Ubiquitin-conjugating enzyme E2 N (Homo sapiens) (UniProt P61088)
# Experiment: NMR detection of UBE2N ligand binding – biophysical, purified protein (AID 1552)
# Settings: NMR binding to purified UBE2N
# Chain of Ubiquitin-conjugating enzyme E2 N (Homo sapiens) (P61088 whole entry, looked up): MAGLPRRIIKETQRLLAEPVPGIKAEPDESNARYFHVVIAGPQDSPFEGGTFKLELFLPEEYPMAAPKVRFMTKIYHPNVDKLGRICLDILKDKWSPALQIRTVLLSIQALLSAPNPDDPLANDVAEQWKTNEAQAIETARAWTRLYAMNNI
row,Structure (SMILES),Kd
1,CO[C@H]1[C@@H](O)[C@@H](C)O[C@H](O[C@H]2CCC3(C)C4CCC5(C)[C@@H](C6=CC(=O)OC6)CC[C@]5(O)[C@@H]4CC[C@]3(O)C2)[C@@H]1O (some centres not stated),> 4 mM (inactive)
2,CCn1nnc(NC(=O)c2ccccc2Br)n1,> 4 mM (inactive)
3,Cc1cc(SCCF)n2ncnc2n1,> 4 mM (inactive)
4,COc1cc(OC)c2ccc(=O)oc2c1,> 4 mM (inactive)
5,NC(=O)c1ccccc1N=Cc1ccco1,> 4 mM (inactive)
6,N#C/C(=C\c1ccc[nH]1)S(=O)(=O)c1ccccc1,> 4 mM (inactive)
7,CC(=O)Nc1nc(-c2cccs2)cs1,> 4 mM (inactive)
8,O=C(Nc1ccccc1)Nc1ccccn1,> 4 mM (inactive)
9,COc1c2c(c(CC=C(C)C)c3oc(=O)c(-c4ccc(O)cc4)c(O)c13)OC(C)(C)C=C2,> 4 mM (inactive)
10,COc1ccc2c(c1OC)C(=O)N(c1ncn[nH]1)C2,> 4 mM (inactive)
11,CNC(=O)C1=NCCCc2cc(OC)c(OC)cc21,> 4 mM (inactive)
12,CC(=O)Nc1cccc(-c2nnc(-c3ccccc3)o2)c1,> 4 mM (inactive)
13,Nc1cccc(CC(=S)N2CCOCC2)c1,> 4 mM (inactive)
14,CC(=O)Nc1ccc(CN2CCOCC2)cc1,> 4 mM (inactive)
15,COC(=O)CCSCC(=O)Nc1nnc(C)s1,> 4 mM (inactive)
16,Cc1nc(SCC#N)c2c3c(sc2n1)CCC3,> 4 mM (inactive)
17,CC(CCC(=O)O)[C@H]1CCC2C3C(C[C@H](O)[C@@]21C)[C@@]1(C)CC[C@@H](O)C[C@H]1C[C@H]3O (some centres not stated),> 4 mM (inactive)
18,O=C(O)CSc1nnc(-c2cccs2)o1,> 4 mM (inactive)
19,CC(=O)NC1=C(N(C)C)C(=O)c2ccccc2C1=O,> 4 mM (inactive)
20,Cc1nn(C)c2sc(C(=O)O)cc12,> 4 mM (inactive)
21,Cc1c(CCO)c(=O)n2c([nH]c3ccccc32)c1C#N,> 4 mM (inactive)
22,NC(=O)CSc1nnc(-c2cccnc2)o1,> 4 mM (inactive)
23,Nc1cccc(C(=O)Nc2ccc(N)cc2Cl)c1,> 4 mM (inactive)
24,CN1CCCCC1c1ccc(-c2cccnc2)nc1 (configuration not stated),> 4 mM (inactive)
25,COc1ccccc1NC(=O)c1snnc1C,> 4 mM (inactive)

row,Structure (SMILES),Kd
1,Cn1c(O)c(/C=C2\C=CC=N2)c(=O)[nH]c1=S,> 4 mM (inactive)
2,Cn1c(SCC(N)=O)nc2c1c(=O)[nH]c(=O)n2C,> 4 mM (inactive)
3,Cn1c(O)c(C=NCC2CCNCC2)c(=O)n(C)c1=O,> 4 mM (inactive)
4,CCn1ncc(Cl)c1C(=O)Nc1ccncc1,> 4 mM (inactive)
5,O=C(CN1CCOCC1)Nc1cccc(Br)c1,> 4 mM (inactive)
6,Cn1c(=O)c2c(ncn2CCN)n(C)c1=O,> 4 mM (inactive)
7,Cc1cc(NC(=O)c2cccc(S(C)(=O)=O)c2)no1,> 4 mM (inactive)
8,O=C(O)Cn1cc(C(=O)c2cccs2)c2ccccc21,> 4 mM (inactive)
9,COCc1nc(-c2cc(Br)ccc2OC)no1,> 4 mM (inactive)
10,Cc1nn(-c2ccccc2)nc1CO,> 4 mM (inactive)
11,NS(=O)(=O)c1ccc(NC(=O)c2ccccc2F)cc1,> 4 mM (inactive)
12,COc1cc2cc[n+]3cc4c(OC)c(OC)ccc4cc3c2cc1OC,> 4 mM (inactive)
13,Cc1nnc(N2CCc3ccccc3C2)[nH]c1=O,> 4 mM (inactive)
14,COc1ccccc1-c1nc(-c2ccc(C)nc2OC)no1,> 4 mM (inactive)
15,Cn1cc(C(=O)N/N=C/c2ccccc2)ccc1=O,> 4 mM (inactive)
16,Nc1cccc2nonc12,> 4 mM (inactive)
17,C(=N\n1cnnc1)/c1cccs1,> 4 mM (inactive)
18,CCC(=O)NC(=S)Nc1ccc(O)cc1,> 4 mM (inactive)
19,CCOC(=O)c1cc(C)n(-n2cnnc2)c1C,> 4 mM (inactive)
20,NC1CS(=O)(=O)CC1O (configuration not stated),> 4 mM (inactive)
21,CC1CCc2cc(F)ccc2N1C(=O)c1ccc(=O)[nH]n1 (configuration not stated),> 4 mM (inactive)
22,CC(=O)Nc1c(Cl)cnn(-c2ccccc2)c1=O,> 4 mM (inactive)
23,Cc1nn(-c2ccccc2)nc1CN,> 4 mM (inactive)
24,Cc1ccccc1NC(=O)C1CC(=O)N=C(N)S1 (configuration not stated),> 4 mM (inactive)
25,Cc1n[nH]c(C)c1-c1ccccc1C(=O)O,> 4 mM (inactive)

row,Structure (SMILES),Kd
1,Cc1nc(NCc2ccco2)nc2c1C(=O)CC(C)C2 (configuration not stated),> 4 mM (inactive)
2,O=S(=O)(O)c1nc2ccccc2[nH]1,> 4 mM (inactive)
3,Nc1cc(=O)[nH]c(SCC(=O)NCc2ccccc2)n1,> 4 mM (inactive)
4,CC(=O)Nc1ccc(S(=O)(=O)NC(N)=O)cc1,> 4 mM (inactive)
5,COc1nc(C)ccc1-c1noc(-c2ccncc2)n1,> 4 mM (inactive)
6,COc1cccc(Oc2ccc(N)cn2)c1,> 4 mM (inactive)
7,CCn1cnc2cc([N+](=O)[O-])ccc2c1=O,> 4 mM (inactive)
8,CCc1cc(=O)[nH]c(SCC(=O)NCCOC)n1,> 4 mM (inactive)
9,Cc1ccc2c(c1)CCCN2C(=O)c1ccncc1,> 4 mM (inactive)
10,O=S(=O)(Nc1cccnc1Cl)c1ccccc1,> 4 mM (inactive)
11,C/C=C/C=N/NC(=O)c1ccc(=O)n(C)c1,> 4 mM (inactive)
12,CCOC(=O)c1c(C)nc2cc(C)ccn12,> 4 mM (inactive)
13,NC(=O)Cn1nc(-c2ccc(F)cc2)ccc1=O,> 4 mM (inactive)
14,O=C(Nn1cnnc1)c1cc2c(s1)CCCCC2,> 4 mM (inactive)
15,Cn1c(-c2ccccc2F)n[nH]c1=S,> 4 mM (inactive)
16,CC(=O)CC(=O)N1C(O)CC[N+]1(C)C (configuration not stated),> 4 mM (inactive)
17,O=C(O)CC[N+](=O)[O-],> 4 mM (inactive)
18,CC(=O)Nc1nnc(-c2ccccc2)o1,> 4 mM (inactive)
19,COC(=O)Nc1ccc2ncn(C)c(=O)c2c1,> 4 mM (inactive)
20,CC(=O)N(C)Cc1nc2ccccc2n1C,> 4 mM (inactive)
21,Cc1nnc(NCCN2CCOCC2)[nH]c1=O,> 4 mM (inactive)
22,COc1cccc(NC(=O)c2cccs2)c1,> 4 mM (inactive)
23,Oc1ccc([C@H]2Oc3cc(O)cc(O)c3C[C@H]2O)cc1,> 4 mM (inactive)
24,O=C(Nc1ccc(-c2nnco2)cc1)c1ccccc1,> 4 mM (inactive)
25,COc1ccc(Cc2nnc3c4cnn(C)c4ncn23)cc1,> 4 mM (inactive)

row,Structure (SMILES),Kd
1,Cc1ccc(C(=O)Nc2c[nH]c(=O)[nH]c2=O)cc1,> 4 mM (inactive)
2,O=C1CCC(=O)N1c1ccc(O)cc1,> 4 mM (inactive)
3,Cc1onc(-c2ccccc2)c1C(=O)O,> 4 mM (inactive)
4,Cn1cnc2cc(NC(=O)c3ccco3)ccc21,> 4 mM (inactive)
5,Cc1ccc(-n2ncc(C#N)c2/N=C/N(C)C)cc1,> 4 mM (inactive)
6,Cc1nnsc1C(=O)N(C)c1ccccc1,> 4 mM (inactive)
7,Cn1cccc1C(=S)N1CCOCC1,> 4 mM (inactive)
8,O=C(NCc1ccccn1)c1ccc(Br)s1,> 4 mM (inactive)
9,O=C(O)c1ncoc1-c1ccccc1,> 4 mM (inactive)
10,CC(=O)Nc1nnc(-c2ccccn2)o1,> 4 mM (inactive)
11,N=c1n(N)c2ccccc2n1CCO,> 4 mM (inactive)
12,O=C(O)CC1C(=O)NCCN1Cc1cccs1 (configuration not stated),> 4 mM (inactive)
13,Cc1nc2nc(Cc3ccccc3)nn2c(C)c1Cl,> 4 mM (inactive)
14,NC1C2CC3CC1CC(O)(C3)C2 (configuration not stated),> 4 mM (inactive)
15,O=C(Nc1ccc2c(c1)OCCO2)c1c(F)cccc1F,> 4 mM (inactive)
16,CC(=O)NC(C)C12CC3CC(CC(C(=O)O)(C3)C1)C2 (configuration not stated),> 4 mM (inactive)
17,CSc1ccn(CCC(=O)O)c(=O)n1,> 4 mM (inactive)
18,COCCn1c(N)nc2c1c(=O)[nH]c(=O)n2C,> 4 mM (inactive)
19,CC1(C)C(=O)N(O)C(C)(C)C(=O)N1O,> 4 mM (inactive)
20,CC(=O)C1CCC2C3CCC4C[C@H](O)CCC4(C)C3C[C@H](O)C12C (some centres not stated),> 4 mM (inactive)
21,CC(=O)OC1CCC2(C)C(=CC=C3C2CCC2(C)C3CCC2C(C)/C=C/C(C)C(C)C)C1(C)C (configuration not stated),> 4 mM (inactive)
22,CC(C)(C)c1cc(N)n[nH]1,> 4 mM (inactive)
23,COc1ccc2c(c1)OC/C(=C/c1ccc(OC)c(OC)c1)C2=O,> 4 mM (inactive)
24,COC(=O)c1ccc(Cl)c(NC(C)=O)c1,> 4 mM (inactive)
25,CC(=O)O[C@@H]1CC2C(C)(C)C(=O)C3OC3[C@]2(C)C2CC[C@@]3(C)[C@H](c4ccoc4)OC(=O)C4OC43[C@@]21C (some centres not stated),> 4 mM (inactive)

row,Structure (SMILES),Kd
1,O=c1[nH]c2ccccc2c(=O)n1CCCO,> 4 mM (inactive)
2,CN(C)S(=O)(=O)c1ccccc1C#N,> 4 mM (inactive)
3,C=C[C@@](C)(O)CCC1C(=C)C[C@H](O)C2C(C)(C)CCCC12C (some centres not stated),> 4 mM (inactive)
4,O=C(O)C1COc2ccccc2O1 (configuration not stated),> 4 mM (inactive)
5,CNc1nnc(CSc2nc(C)cc(C)n2)s1,> 4 mM (inactive)
6,Cc1[nH]c2ccccc2c1C=Nn1cncn1,> 4 mM (inactive)
7,Cc1cc(O)cc(O)c1C(=O)O,> 4 mM (inactive)
8,Nc1ccccc1-n1cccn1,> 4 mM (inactive)
9,Cn1c(=O)[nH]c(=O)c2nsnc21,> 4 mM (inactive)
10,Clc1ccc2c(N3CCNCC3)ccnc2c1,> 4 mM (inactive)
11,COC1=CC23CCCN2CCc2cc4c(cc2C3C1O)OCO4 (configuration not stated),> 4 mM (inactive)
12,O=C(NCc1cccnc1)c1ccccn1,> 4 mM (inactive)
13,c1ccc2c(c1)[nH]c1cnccc12,> 4 mM (inactive)
14,Cc1ccc(C(=O)Nn2cnnc2)c(Cl)c1,> 4 mM (inactive)
15,CCOC(=O)C1CCN(Cc2ccccc2)CC1=O (configuration not stated),> 4 mM (inactive)
16,O=C(O)CNC(=O)c1ccccc1,> 4 mM (inactive)
17,O=c1ccc2c([nH]1)CCCC2,> 4 mM (inactive)
18,O=C(NCc1ccccn1)c1ccccc1Cl,> 4 mM (inactive)
19,CCNC(=S)NS(=O)(=O)c1ccccc1,> 4 mM (inactive)
20,CC(=O)N1CCN(C2CCSC2)CC1 (configuration not stated),> 4 mM (inactive)
21,c1ccc2c(NC3=NCCS3)cccc2c1,> 4 mM (inactive)
22,O=c1[nH]cc(Nc2ccccc2)c(=O)[nH]1,> 4 mM (inactive)
